Tests used:
Assay in all cases: cell viability, percent of DMSO control (CellTiter-Glo); higher = more viable cells
Conditions in all cases: 72 h
[1] = tested on: DFTD cell line T1 (06/2887)
Experimental: (§1)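 Eight-point dose titration of 41 screen hits in triplicate wells on four Tasmanian devil DFTD tumour cell lines (T1-T4) and devil fibroblasts, 384-well plates. Viability was read by CellTiter-Glo (ATP) after 72 h at 37 °C. Percent of control per plate: DMSO wells = 100%, positive-control wells = 0%.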

[2] = tested on: DFTD cell line T2 (05/2569)
Experimental: as §1

[3] = tested on: DFTD cell line T3 (06/0368)
Experimental: as §1

[4] = tested on: DFTD cell line T4 (07/0192)
Experimental: as §1

C=CC(=O)N1CCC(Oc2cc3c(Nc4ccc(Cl)c(Cl)c4F)ncnc3cc2OC)CC1 [Poziotinib (HM781-36B)]
cell viability [%]
Conditions	0.00617 µM	0.0185 µM	0.0556 µM	0.166667 µM	0.5 µM	1.5 µM	4.5 µM	13.5 µM
[1]	56.7	29.4	24.3	29.3	28	24.4	26.8	26.6
[2]	87.7	49.6	41.5	38.3	39	26.8	22.5	17
[3]	87	52.5	44	44.6	42.2	30.8	35.9	33
[4]	88.7	44.9	30.6	26.5	27.4	27.1	22.8	21.4

O=C(/C=C/c1cccc(S(=O)(=O)Nc2ccccc2)c1)NO [RLM 2-89]
cell viability [%]
Conditions	0.000617 µM	0.00185 µM	0.00556 µM	0.0167 µM	0.05 µM	0.15 µM	0.45 µM	1.35 µM
[1]	130	115	116	113	114	52.6	20.5	17.4
[2]	110	96.3	118	106	125	82.3	28.8	20.7
[3]	120	103	116	121	128	77.7	32.4	28.9
[4]	121	109	87.9	125	123	83.5	38.1	19.1

C=CC(=O)Nc1cccc(Nc2nc(Nc3ccc(N4CCN(C(C)=O)CC4)cc3OC)ncc2C(F)(F)F)c1 [Rociletinib (CO-1686, AVL-301)]
cell viability [%]
Conditions	0.00617 µM	0.0185 µM	0.0556 µM	0.166667 µM	0.5 µM	1.5 µM	4.5 µM	13.5 µM
[1]	121	114	113	92.4	80.6	41.4	16.9	4.81
[2]	119	108	108	104	86.5	63.1	33.7	12
[3]	127	113	94.5	99.1	101	58.2	40.4	17.4
[4]	116	101	102	89.6	88.6	56.6	32.4	11.9

Cn1cnc2c(F)c(Nc3ccc(Br)cc3Cl)c(C(=O)NOCCO)cc21.O=S(=O)(O)O [Selumetinib (AZD6244)]
cell viability [%]
Conditions	0.00617 µM	0.0185 µM	0.0556 µM	0.166667 µM	0.5 µM	1.5 µM	4.5 µM	13.5 µM
[1]	104	100	104	57	41	35.4	29.1	33.4
[2]	98.8	102	108	63	51.7	39.3	35.4	35.8
[3]	102	112	99.1	75.3	63.7	56.9	42.5	50.7
[4]	89	105	88	62.8	56.2	46	35	31.1

CC(C)(C)P(=NC(=S)NCCCO)(N1CCCCCC1)N1CCCCCC1 [T0503-0280]
cell viability [%]
Conditions	0.00617 µM	0.0185 µM	0.0556 µM	0.166667 µM	0.5 µM	1.5 µM	4.5 µM	13.5 µM
[1]	94.1	106	125	116	96.1	50.7	24.5	19.9
[2]	107	87.6	127	115	92.6	68.7	14.8	27.7
[3]	106	83.3	134	118	99.4	66	17.6	16.1
[4]	118	85.2	129	105	112	38.2	11.4	30.9

CCS(=O)(=O)c1cccc(-c2cc(C(=O)NC3CCN(C)CC3)c(C)c3[nH]c4ncc(C)cc4c23)c1 [TAK901]
cell viability [%]
Conditions	0.00617 µM	0.0185 µM	0.0556 µM	0.166667 µM	0.5 µM	1.5 µM	4.5 µM	13.5 µM
[1]	104	109	113	121	138	59.4	12	-4.29
[2]	125	103	127	111	126	42.4	1.18	-1.98
[3]	106	105	95.9	98.5	104	42.6	4.34	-3.65
[4]	99.7	109	103	104	96.7	26.5	-1.88	-6.14

COc1cc2ncnc(Nc3ccc(O)c(Br)c3)c2cc1OC [WHI-P154]
cell viability [%]
Conditions	0.00617 µM	0.0185 µM	0.0556 µM	0.166667 µM	0.5 µM	1.5 µM	4.5 µM	13.5 µM
[1]	90.9	125	103	86	46.2	36.9	25	21.8
[2]	85	116	105	95.7	58.1	45.3	32.1	20.6
[3]	76.9	125	98.1	92	67.7	55.6	40.4	32.8
[4]	85.6	134	115	84.5	69	42.4	30.6	19.7

COCCn1c2c([n+](Cc3cnccn3)c1C)C(=O)c1ccccc1C2=O.[Br-] [YM155]
cell viability [%]
Conditions	0.00617 µM	0.0185 µM	0.0556 µM	0.166667 µM	0.5 µM	1.5 µM	4.5 µM	13.5 µM
[1]	106	104	109	80.8	38.4	6.92	1.97	-9.67
[2]	106	87.2	111	91.9	42.4	4.91	-0.0383	-10.8
[3]	111	95.3	105	89.3	22	5.85	4.15	-5.27
[4]	107	91.5	86.1	32.4	7.29	-1.02	5.5	-4.07
